From US20230117470A1, “SUBSTITUTED PYRAZOLE COMPOUNDS AS TOLL RECEPTOR INHIBITORS” (BRISTOL-MYERS SQUIBB COMPANY, priority 2019, published 2023)
pIC50: −log10 of the molar value.

Experiments:
Type in all cases: cell-based
[1] = molecular target: T1, human TLR7 (Homo sapiens, UniProt Q9NYK1); test: TLR7 inhibition reporter assay (HEK-Blue cells, SEAP reporter, gardiquimod stimulation); conditions: HEK-Blue cells overexpressing human TLR7, SEAP reporter, gardiquimod 7.5 μM
T1 construct: host or cells: HEK-Blue cells
T1 sequence (Q9NYK1 27-1049): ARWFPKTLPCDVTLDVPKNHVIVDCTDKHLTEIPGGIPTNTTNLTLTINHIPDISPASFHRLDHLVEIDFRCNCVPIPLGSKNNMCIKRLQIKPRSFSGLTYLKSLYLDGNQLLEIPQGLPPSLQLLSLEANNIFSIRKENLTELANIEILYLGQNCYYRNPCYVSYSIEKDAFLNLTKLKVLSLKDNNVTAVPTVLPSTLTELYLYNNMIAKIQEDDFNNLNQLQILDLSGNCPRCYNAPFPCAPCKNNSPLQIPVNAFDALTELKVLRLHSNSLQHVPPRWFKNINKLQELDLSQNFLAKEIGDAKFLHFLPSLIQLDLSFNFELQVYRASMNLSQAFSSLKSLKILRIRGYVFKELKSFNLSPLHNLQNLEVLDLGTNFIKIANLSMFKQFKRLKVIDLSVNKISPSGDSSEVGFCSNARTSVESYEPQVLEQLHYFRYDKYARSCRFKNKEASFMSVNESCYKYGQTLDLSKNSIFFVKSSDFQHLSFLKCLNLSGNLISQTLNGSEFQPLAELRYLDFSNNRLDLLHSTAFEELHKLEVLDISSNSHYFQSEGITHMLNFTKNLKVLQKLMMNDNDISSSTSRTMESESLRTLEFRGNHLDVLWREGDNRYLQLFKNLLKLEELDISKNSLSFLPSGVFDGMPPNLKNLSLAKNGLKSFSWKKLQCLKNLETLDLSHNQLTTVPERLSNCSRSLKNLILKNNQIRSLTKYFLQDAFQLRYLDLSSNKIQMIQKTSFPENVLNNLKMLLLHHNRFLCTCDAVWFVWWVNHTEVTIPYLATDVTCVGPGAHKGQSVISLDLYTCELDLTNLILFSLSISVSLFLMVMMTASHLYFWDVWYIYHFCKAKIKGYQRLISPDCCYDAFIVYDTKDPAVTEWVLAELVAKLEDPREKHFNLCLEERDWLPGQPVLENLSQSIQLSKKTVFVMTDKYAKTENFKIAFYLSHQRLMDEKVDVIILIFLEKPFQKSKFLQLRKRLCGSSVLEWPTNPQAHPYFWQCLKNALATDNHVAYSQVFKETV
Method: (§1) TLR7/8/9 Inhibition Reporter Assays
(§2) HEK-Blue™-cells (Invivogen) overexpressing human TLR7, TLR8 or TLR9 receptors were used for screening inhibitors of these receptors using an inducible SEAP (secreted embryonic alkaline phosphatase) reporter gene under the control of the IFN-β minimal promoter fused to five NF-κB and AP-1-binding sites. Briefly, cells are seeded into Greiner 384 well plates (15000 cells per well for TLR7, 20,000 for TLR8 and 25,000 for TLR9) and then treated with test compounds in DMSO to yield a final dose response concentration range of 0.05 nM-50 μM. After a 30 minute compound pre-treatment at room temperature, the cells are then stimulated with a TLR7 ligand (gardiquimod at a final concentration of 7.5 μM), TLR8 ligand (R848 at a final concentration of 15.9 μM) or TLR9 ligand (ODN2006 at a final concentration of 5 nM) to activate NF-κB and AP-1 which induce the production of SLA After a 22 hour incubation at 37° C., […], SEAP levels are determined with the addition of HEK-Blue™ Detection reagent (Invivogen), a cell culture medium that allows for detection of SLAP, according to manufacturer's specifications. The percent inhibition is determined as the % reduction in the HEK-Blue signal present in wells treated with agonist plus DMSO alone compared to wells treated with a known inhibitor.

[2] = molecular target: T2, human TLR8 (Homo sapiens, UniProt Q9NR97); test: TLR8 inhibition reporter assay (HEK-Blue cells, SEAP reporter, R848 stimulation); conditions: HEK-Blue cells overexpressing human TLR8, SEAP reporter, R848 15.9 μM
T2 construct: host or cells: HEK-Blue cells
T2 sequence (Q9NR97 27-1041): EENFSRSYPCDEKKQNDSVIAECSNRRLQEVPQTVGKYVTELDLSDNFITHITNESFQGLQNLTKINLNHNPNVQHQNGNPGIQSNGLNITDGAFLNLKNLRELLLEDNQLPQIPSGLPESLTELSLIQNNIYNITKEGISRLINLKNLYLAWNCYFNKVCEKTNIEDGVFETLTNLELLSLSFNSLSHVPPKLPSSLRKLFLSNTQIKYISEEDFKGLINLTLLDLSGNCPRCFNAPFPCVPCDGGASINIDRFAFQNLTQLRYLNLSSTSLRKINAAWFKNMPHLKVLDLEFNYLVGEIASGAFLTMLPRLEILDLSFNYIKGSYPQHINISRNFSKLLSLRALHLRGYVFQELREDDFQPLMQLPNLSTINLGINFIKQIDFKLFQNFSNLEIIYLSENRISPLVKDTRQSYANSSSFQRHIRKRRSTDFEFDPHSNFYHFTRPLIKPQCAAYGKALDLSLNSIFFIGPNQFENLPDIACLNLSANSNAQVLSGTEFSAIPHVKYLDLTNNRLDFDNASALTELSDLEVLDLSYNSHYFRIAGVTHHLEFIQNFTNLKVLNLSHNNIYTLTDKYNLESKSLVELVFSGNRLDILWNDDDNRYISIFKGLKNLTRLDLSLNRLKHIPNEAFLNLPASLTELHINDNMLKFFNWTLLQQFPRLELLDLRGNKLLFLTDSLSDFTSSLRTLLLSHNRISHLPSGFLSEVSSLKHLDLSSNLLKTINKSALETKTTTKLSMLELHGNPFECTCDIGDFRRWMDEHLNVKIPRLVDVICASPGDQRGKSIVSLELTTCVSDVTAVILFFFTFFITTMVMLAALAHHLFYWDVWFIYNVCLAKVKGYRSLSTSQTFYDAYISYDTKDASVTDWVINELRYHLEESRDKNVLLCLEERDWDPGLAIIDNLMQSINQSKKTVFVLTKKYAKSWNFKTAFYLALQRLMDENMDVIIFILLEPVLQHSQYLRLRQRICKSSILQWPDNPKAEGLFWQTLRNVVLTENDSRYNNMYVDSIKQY
Method: as §1, §2

[3] = molecular target: T3, human TLR9 (Homo sapiens, UniProt Q9NR96); test: TLR9 inhibition reporter assay (HEK-Blue cells, SEAP reporter, ODN2006 stimulation); conditions: HEK-Blue cells overexpressing human TLR9, SEAP reporter, ODN2006 5 nM
T3 construct: host or cells: HEK-Blue cells
T3 sequence (Q9NR96 26-1032): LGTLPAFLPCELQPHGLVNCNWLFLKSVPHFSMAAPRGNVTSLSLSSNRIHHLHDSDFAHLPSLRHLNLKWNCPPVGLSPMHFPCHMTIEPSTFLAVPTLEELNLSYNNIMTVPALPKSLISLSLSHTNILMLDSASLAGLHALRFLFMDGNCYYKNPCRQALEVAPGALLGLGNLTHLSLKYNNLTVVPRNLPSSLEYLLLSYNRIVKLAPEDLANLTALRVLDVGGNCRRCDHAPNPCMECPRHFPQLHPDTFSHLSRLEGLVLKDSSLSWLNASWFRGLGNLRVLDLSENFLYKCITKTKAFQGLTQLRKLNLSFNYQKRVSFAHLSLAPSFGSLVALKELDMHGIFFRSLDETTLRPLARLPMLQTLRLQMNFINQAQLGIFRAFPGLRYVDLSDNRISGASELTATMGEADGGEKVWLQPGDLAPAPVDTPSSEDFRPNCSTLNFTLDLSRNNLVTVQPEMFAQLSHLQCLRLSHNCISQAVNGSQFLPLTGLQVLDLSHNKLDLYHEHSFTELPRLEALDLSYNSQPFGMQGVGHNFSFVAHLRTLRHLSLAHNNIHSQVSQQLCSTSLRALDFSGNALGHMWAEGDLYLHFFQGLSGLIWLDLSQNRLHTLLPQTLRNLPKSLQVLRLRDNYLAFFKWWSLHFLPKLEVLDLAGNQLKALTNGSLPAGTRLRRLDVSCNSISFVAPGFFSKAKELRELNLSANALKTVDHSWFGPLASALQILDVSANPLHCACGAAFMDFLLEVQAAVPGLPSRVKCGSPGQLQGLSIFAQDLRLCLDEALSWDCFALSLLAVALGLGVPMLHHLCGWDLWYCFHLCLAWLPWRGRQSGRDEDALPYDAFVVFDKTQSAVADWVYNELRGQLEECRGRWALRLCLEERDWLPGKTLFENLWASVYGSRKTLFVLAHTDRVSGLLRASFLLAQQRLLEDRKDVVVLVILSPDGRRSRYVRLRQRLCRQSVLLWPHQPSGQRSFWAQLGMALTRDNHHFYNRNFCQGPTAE
Method: as §1, §2

Row | Structure (SMILES) | pIC50 [1] | pIC50 [2] | pIC50 [3]
1 | Cc1c(C(=O)NC2CCN(C(C)C)CC2)n[nH]c1-c1cc(C)c2ncnn2c1 [Example 179, N-(1-isopropylpiperidin-4-yl)-4-methyl-5-(8-methyl-[1,2,4]triazolo[1,5-a]pyridin-6-yl)-1H-pyrazole-3-carboxamide] | 8.01 | 7.87 | 5.14
2 | COc1cc(-c2[nH]nc(-c3nc4c(s3)CNCC4)c2C(C)C)cn2ncnc12 [Example 220] | 8.85 | 8.36 | < 4.30
3 | COc1cc(-c2[nH]nc(-c3ccc(C4CCN(CC(N)=O)CC4)cc3)c2C(C)C)cn2ncnc12 [compound 322] | 7.80 | 8.33 | 4.45
4 | COc1cc(-c2[nH]nc(-c3ccc(C4CCN(C5CCOCC5)CC4)cc3)c2C(C)C)cn2ncnc12 [Example 313] | 8.43 | 8.76 | < 4.30
5 | Cc1cc(-c2[nH]nc(C(=O)NCC3CN(CC4(C)COC4)CCO3)c2C(C)C)cn2ncnc12 (centres unmarked) [Example 137] | 8.47 | 7.39 | 5.17
6 | Cc1cc(-c2[nH]nc(C(=O)NC3CCN(C(C)C)CC3)c2C(C)C)cc(C)n1 [Example 36] | 5.89 | 5.81 | 4.60
7 | COc1cc(-c2[nH]nc(-c3ccc(C4CCN(CC(F)(F)F)CC4)cc3)c2C(C)C)cn2ncnc12 [Example 320] | 8.36 | 8.89 | 4.66
8 | Cc1cc(-c2c(C(C)C)c(C(=O)NC3CCN(CC(F)(F)F)CC3)nn2CC(F)(F)F)cn2ncnc12 [Example 175, 4-isopropyl-5-(8-methyl-[1,2,4]triazolo[1,5-a]pyridin-6-yl)-1-(2,2,2-trifluoroethyl)-N-(1-(2,2,2-trifluoroethyl)piperidin-4-yl)-1H-pyrazole-3-carboxamide] | 8.42 | 8.21 | 5.20
9 | Cc1cc(-c2[nH]nc(C(=O)NC3CCN(C)CC3)c2C(C)C)cn2ncnc12 [Example 8] | 8.61 | 8.27 | 4.51
10 | Cc1cc(-c2[nH]nc(C(=O)N3CCC(CN)CC3)c2C(C)C)cn2ncnc12 [Example 61] | 7.64 | 8.27 | < 4.30
11 | COc1cc(-c2[nH]nc(-c3cnc(C4CCNCC4)cn3)c2C(C)C)cn2ncnc12 [Example 345] | 7.63 | 8.51 | < 4.30
12 | Cc1cc(-c2[nH]nc(C(=O)N3CC[C@H](N(C)C)C3)c2C(C)C)cn2ncnc12 [Example 22] | 8.91 | 9.05 | 5.31
13 | COc1ncc(CN[C@H]2CC[C@H](NC(=O)c3n[nH]c(-c4cc(C)c5ncnn5c4)c3C(C)C)CC2)cn1 [Example 114] | 8.44 | 8.85 | 5.84
14 | Cc1cc(-c2[nH]nc(C(=O)NCC3CCCCN3)c2C(C)C)cn2ncnc12 (centres unmarked) [Example 56] | 8.36 | 8.46 | –

Second part, the compound after the results:

Row | pIC50 [1] | pIC50 [2] | pIC50 [3] | Structure (SMILES)
15 | 9.10 | 9.24 | 4.85 | CNC(=O)CN1CCC(c2n[nH]c(-c3cc(C)c4ncnn4c3)c2C(C)C)CC1 [Example 211, 2-(4-(4-isopropyl-5-(8-methyl-[1,2,4]triazolo[1,5-a]pyridin-6-yl)-1H-pyrazol-3-yl)piperidin-1-yl)-N-methylacetamide]
16 | 7.77 | 8.72 | 4.99 | COc1cc(-c2[nH]nc(-c3ccc(C4CN(C5COC5)C4)cc3)c2C(C)C)cn2ncnc12 [Example 332]
17 | 7.36 | 6.91 | < 4.30 | CCN(CC)CC(=O)N1CCC(c2cnc(-c3n[nH]c(-c4cc(OC)c5ncnn5c4)c3C(C)C)cn2)CC1 [Example 404]
18 | 7.31 | 7.22 | 4.63 | Cc1cc(-c2[nH]nc(C(=O)N[C@H]3CC[C@@H](NCC4(C)COC4)CC3)c2C(C)C)cn2ncnc12 [Example 151]
19 | 8.33 | 8.47 | 5.28 | Cc1cc(-c2[nH]nc(-c3ccc(C4CCNCC4)nc3)c2C(C)C)cn2ncnc12 [Example 340]
20 | 7.99 | 8.45 | 5.02 | CCC(CC)N1CCC(c2cnc(-c3n[nH]c(-c4cc(OC)c5ncnn5c4)c3C(C)C)cn2)CC1 [Example 386]
